Measured values: PubChem BioAssay AID463199 (Broad Institute, 2010)
Activity calls are given as the source filed them.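 The calls were made as follows: active = AC50, the dose giving half-maximal effect, exceeds a fixed cutoff for a compound that rescues yeast growth under heat; inactive = the rest, inconclusive results apart.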

Tested on: S. cerevisiae Burl-1 ts mutant growth, BacTiter-Glo, 38.5C 24 h
Assay: restored growth of temperature-sensitive Burl-1 yeast – whole organism, S. cerevisiae, Burl-1 ts mutant, luminescence, counter-screen for SUMOylation pathway inhibitor project, dose response (AID 463199)

Row | SMILES | AC50
1 | c1ccc(CNc2ccc3ccccc3n2)nc1 | > 42 µM (inactive)
2 | CC(C)c1ccc(NC(=O)COc2nnc(-c3cccs3)c(-c3cccs3)n2)cc1 | > 42 µM (inactive)
3 | CCC1=Nc2cc(C(=O)NCc3ccco3)ccc2Sc2ccccc21 | > 42 µM (inactive)
4 | CCOc1ccc(C(=O)NNC2CC(=O)N(CCc3ccccc3)C2=O)cc1OC (configuration not stated) | > 42 µM (inactive)
5 | CCOC(=O)c1ccc(CNC(=O)Cn2nnc(-c3ccc(C)cc3)n2)o1 | > 42 µM (inactive)
6 | Cc1cc(-c2ccccc2)n(-c2ccc(C(=O)NC(C)C)cc2)n1 | > 42 µM (inactive)
7 | CCNC(=O)C1CC(=O)N(Cc2ccc3c(c2)OCO3)C(=Nc2ccc(F)cc2)S1 (configuration not stated) | > 42 µM (inactive)
8 | O=C(CCCNC(=O)/C(=C/c1ccccc1F)NC(=O)c1ccccc1)OCc1ccccc1 | > 42 µM (inactive)
9 | CCc1cc2c(=O)c(-c3nc4ccccc4[nH]3)coc2c(CN2CCCCC2)c1O | > 42 µM (inactive)
10 | NC(=O)NC(=O)CSc1nc(C2CCCCC2)n(-c2ccccc2)n1 | > 42 µM (inactive)
11 | Cc1ccc(NC(=O)COc2ccccc2C(=O)NCCN(C)C)cc1 | > 42 µM (inactive)
12 | O=C(CCn1cnnn1)Nc1ccc(Cl)cc1Cl | > 42 µM (inactive)
13 | CC1(C)CC(=O)C=C(OC(=O)c2ccc(Cl)cc2)C1 | > 42 µM (inactive)
14 | COC(=O)[C@@]12CCCCN1[C@H](c1ccc(-c3cccc(Cl)c3)c(OC)c1)[C@H]1C(=O)N(C)C(=O)[C@H]12 | > 42 µM (inactive)
15 | Cc1ccc(S(=O)(=O)NC2CCCCCCC2)cc1 | > 42 µM (inactive)
16 | COc1cc([C@@H]2CC=C(C(=O)O)[C@H](c3ccccc3F)N2S(=O)(=O)c2ccc(C)cc2)cc(OC)c1OC | > 42 µM (inactive)
17 | O=c1[nH]cnc2ccc([N+](=O)[O-])cc12 | > 42 µM (inactive)
18 | O=C(CSCc1ccc(Cl)cc1)N1CCCCC1 | > 42 µM (inactive)
19 | O=C(Nc1ccccc1F)C1CCN(C(=O)Cc2ccccc2)CC1 | > 42 µM (inactive)
20 | COc1ccc2oc(=O)c(C(=O)NCc3ccco3)cc2c1 | 15.5 µM
21 | CC(=O)Nc1ccc(S(=O)(=O)Nc2ccc(S(=O)(=O)Nc3ncccn3)cc2)cc1 | > 42 µM (inactive)
22 | Cc1ccc(S(=O)(=O)NN2C(=O)c3ccccc3NC2c2ccccc2F)cc1 (configuration not stated) | > 42 µM (inactive)
23 | CCCCc1ccc(S(=O)(=O)NNC(=S)NCc2ccco2)cc1 | > 42 µM (inactive)
24 | Cc1ccccc1-c1nnnn1C1CCS(=O)(=O)C1 (configuration not stated) | > 42 µM (inactive)
25 | CN(C)C(=O)c1coc2nc3ccccc3nc12 | > 42 µM (inactive)
26 | Cc1cc2c(C)ccc(C)c2nc1SCC(=O)c1cccs1 | > 42 µM (inactive)

Row | SMILES | AC50
27 | CC(C)c1cccc(OCCCCN(C)C)c1 | > 42 µM (inactive)
28 | O=C(CCc1ccccc1)NNC(=O)c1ccc(Br)cc1 | > 42 µM (inactive)
29 | CCCCCC(=O)Nc1ccc(-c2csc(N)n2)cc1 | > 42 µM (inactive)
30 | CCCCCC(=O)NNC1=NCC(Cc2cccc(Cl)c2)S1 (configuration not stated) | > 42 µM (inactive)
31 | CCCCCCC(C)n1[nH]c(=O)c2c(C)cc(=O)[nH]c21 (configuration not stated) | > 42 µM (inactive)
32 | O=c1cnc2ccccc2n1Cc1ccccc1C(F)(F)F | > 42 µM (inactive)
33 | CC(NC(=O)c1cccs1)c1ccc(Br)cc1 (configuration not stated) | > 42 µM (inactive)
34 | NC(=O)CN1CCOCCN(CC(N)=O)CCOCC1 | > 42 µM (inactive)
35 | CCCC(=O)NC(C)c1nc2ccccc2[nH]1 (configuration not stated) | > 42 µM (inactive)
36 | CCSc1nc2ccccc2c(=O)n1C1CCOC(C)(C)C1 (configuration not stated) | > 42 µM (inactive)
37 | CC1=NC2(CCCc3c2no[n+]3[O-])N(O)C1(C)C (configuration not stated) | > 42 µM (inactive)
38 | N#Cc1cc([N+](=O)[O-])cnc1NCC(O)CO (configuration not stated) | > 42 µM (inactive)
39 | O=c1c2ccccc2nc(SCc2nnc(-c3ccccc3)o2)n1-c1ccc(F)cc1F | > 42 µM (inactive)
40 | COCc1nnc(NC(=O)CC(C)C)s1 | > 42 µM (inactive)
41 | CC(SC#N)C(=O)C12CC3CC(CC(C3)C1)C2 (configuration not stated) | > 42 µM (inactive)
42 | COC(=O)CCCC(=O)NCC1(N(C)Cc2ccccc2)Cc2ccccc2C1 | > 42 µM (inactive)
43 | COc1ccc(N2C(=O)CC(NCc3cccs3)C2=O)cc1 (configuration not stated) | > 42 µM (inactive)
44 | Cc1cc(S(=O)(=O)N2CCCCC2CCNC(=O)C(=O)NCC2CCCO2)ccc1F (configuration not stated) | > 42 µM (inactive)
45 | Cc1cc(C)n(CCCNC(=O)CN(C)S(=O)(=O)c2ccc(Cl)cc2)n1 | > 42 µM (inactive)
46 | COc1cc(SC)ccc1C(=O)N1CCCCCC1 | > 42 µM (inactive)
47 | CCOC(=O)c1sc(N/N=C/c2ccc(N(C)C)cc2)nc1C | > 42 µM (inactive)
48 | Cc1cccc(C)c1NS(=O)(=O)c1ccc(OCCNS(C)(=O)=O)cc1 | > 42 µM (inactive)
49 | CCn1nc(CC(=O)Nc2ccc(-n3cnnn3)c(C)c2)c2ccccc2c1=O | > 42 µM (inactive)
50 | CC(=O)N(C)c1ccc(N2CCOCC2)c2c1C(=O)c1ccccc1C2=O | > 42 µM (inactive)
51 | NC1=NC(=Nc2ccc(S(N)(=O)=O)cc2)c2ccccc21 | > 21 µM (inactive)
52 | CC(C)C(=O)NCCSc1c[nH]c2ccccc12 | > 42 µM (inactive)

Row | SMILES | AC50
53 | COc1cc(/C=N/n2cnnc2)ccc1OCc1ccccc1 | > 42 µM (inactive)
54 | CCc1cc(/C(Cc2ccccn2)=N\O)c(O)cc1O | > 42 µM (inactive)
55 | N=c1sccn1CC(=O)Nc1cccc(S(N)(=O)=O)c1 | > 42 µM (inactive)
56 | CCN(CC)c1ccc(Nc2cc3n(c(=O)n2)CCc2cc(OC)c(OC)cc2-3)cc1 | > 42 µM (inactive)
57 | COc1ccc(NC2=C(C)C(=O)CC2)cc1 | > 42 µM (inactive)
58 | Cc1ccc(-c2nc(CS(=O)(=O)CC(=O)NC3CCCCC3C)c(C)o2)cc1 (configuration not stated) | > 42 µM (inactive)
59 | CN(C(=O)COC(=O)c1cc2ccccc2cc1O)c1c(N)n(Cc2ccccc2)c(=O)[nH]c1=O | > 42 µM (inactive)
60 | Cc1ccc(S(=O)(=O)N2CCN(C(=O)CSc3nc(N)cc(=O)[nH]3)CC2)c(C)c1 | > 42 µM (inactive)
61 | CCC(Cc1ccccc1)NC(=O)C1CCN(c2nn3c(=O)cc(C)nc3s2)CC1 (configuration not stated) | > 42 µM (inactive)
62 | COC(=O)Oc1ccc(/C=N/NS(=O)(=O)c2ccccc2)cc1OC | > 42 µM (inactive)
63 | CC(C)c1cc(N2CCOCC2)n2ncc(-c3ccccc3)c2n1 | > 42 µM (inactive)
64 | Cc1ccc(-c2nc3c(=O)n(-c4ccccc4)c4c(c(=O)n(C)c(=O)n4C)c3o2)cc1 | > 42 µM (inactive)
65 | Cc1ccc(SC[C@H](C)CN2CC[C@H](C)CCC2=O)cc1 | > 42 µM (inactive)
66 | O=C(NCc1ccco1)C1CC(=O)N(c2ccc(Cl)cc2)C1 (configuration not stated) | > 42 µM (inactive)
67 | C=CCOC(=O)C(C#N)c1nc2ccccc2nc1N1CCN(Cc2ccccc2)CC1 (configuration not stated) | > 42 µM (inactive)
68 | O=C(COc1ccccc1Cl)c1ccc[nH]1 | > 42 µM (inactive)
69 | COCC(=O)n1nc(-c2ccc(Cl)cc2)nc1NCc1ccc(F)cc1 | > 42 µM (inactive)
70 | CCc1ccccc1NC(=S)NNC(=O)c1ccccc1Cl | > 42 µM (inactive)
71 | c1ccc2[nH]c(CSc3nccs3)nc2c1 | > 42 µM (inactive)
72 | O=C(Nc1ccc2c(c1)oc1ccccc12)C1CC1 | > 42 µM (inactive)
73 | CCCC(O)(CCC)C(=O)NNc1ccc(C)cc1 | > 42 µM (inactive)
74 | COc1ccc(C(=O)Sc2ccc(Cl)cc2)cc1OC | > 42 µM (inactive)
75 | NC(=O)NC(=O)COC(=O)/C=C/c1cccs1 | > 42 µM (inactive)
76 | O=S(=O)(Nc1cccc2cn[nH]c12)c1ccc(F)cc1 | > 42 µM (inactive)
77 | COc1ccc2c(c1)OC[C@H]1[C@H]2N2C(=O)c3cc(OC)c(OC)cc3NC(=O)[C@@]2(C)[C@H]1c1ccccc1 | > 42 µM (inactive)
78 | CCOC(=O)N1CCC(Nc2nc3ccccc3n3nnnc23)CC1 | > 42 µM (inactive)

Row | SMILES | AC50
79 | O=C1OCc2cc(NS(=O)(=O)c3cccs3)ccc21 | > 42 µM (inactive)
80 | O=c1c2ccccc2c2ccccc2c(=O)n1-c1ccccc1 | > 42 µM (inactive)
81 | Nc1nnc(CC(=O)N2CCCCC2)s1 | > 42 µM (inactive)
82 | CC(=O)C(C(c1ccccc1)c1c[nH]c2ccccc12)[N+](=O)[O-] (configuration not stated) | > 42 µM (inactive)
83 | O=[N+]([O-])c1cncc([N+](=O)[O-])c1Nc1ccccc1Cl | > 42 µM (inactive)
84 | COCC(=O)Nc1c(C(=O)Nc2ccc3c(c2)OCO3)oc2ccccc12 | > 42 µM (inactive)
85 | CS(=O)(=O)N1CCCC(C(=O)Nc2ccc(F)cc2F)C1 (configuration not stated) | > 42 µM (inactive)
86 | CCC(=O)Nc1ccc(Br)c(Cl)c1 | > 42 µM (inactive)
87 | COCCn1c(SCC(=O)N2CCCC2)nnc1-c1ccoc1C | > 42 µM (inactive)
88 | CCOCCCNC(=O)C(c1ccc(OC)cc1)N(Cc1ccc2c(c1)OCO2)C(=O)CNC(C)=O (configuration not stated) | > 42 µM (inactive)
89 | CCOc1cc(NC(=O)c2cccs2)c(OCC)cc1NC(=O)CCC(=O)NCCN1CCOCC1 | > 42 µM (inactive)
90 | N#CCN(N=Nc1ccccc1)c1ccccc1 | > 42 µM (inactive)
91 | COc1ccccc1/C=C/C(=O)N1CCc2cc(OC)c(OC)cc2C1C (configuration not stated) | > 42 µM (inactive)
92 | C/C(=N/Nc1ccc(F)cc1)c1ccc(Cl)s1 | > 42 µM (inactive)
93 | O=C1COc2ccc(C(=O)COC(=O)c3ncc(Cl)c(Cl)c3Cl)cc2N1 | > 42 µM (inactive)
94 | O=C1CC(=O)C(n2cncn2)C(c2ccc(Cl)cc2Cl)C1 (configuration not stated) | > 42 µM (inactive)
95 | COc1ccc2c(c1)[C@H]1[C@H](CO2)[C@H](c2ccccc2)[C@]2(C)C(=O)Nc3ccc(Br)cc3C(=O)N12 | > 42 µM (inactive)
96 | CSc1cccc(N2C(=O)C3CCCN3C2=S)c1 (configuration not stated) | > 42 µM (inactive)
97 | CCOC(=O)C(NC(=O)c1ccccc1)(N1CCOCC1)C(F)(F)F (configuration not stated) | > 42 µM (inactive)
98 | O=S(=O)(Cc1cc(-c2ccccc2)no1)c1ccccc1 | > 42 µM (inactive)
99 | Cc1ccc(NC(=O)NNC(=O)Cn2nc(-c3ccccc3)c(-c3ccccc3)c(C#N)c2=O)cc1 | > 42 µM (inactive)
100 | CC(=O)Nc1ccc(-c2csc(NC(=O)C3CC(=O)N(c4ccc5c(c4)OCCO5)C3)n2)cc1 (configuration not stated) | > 42 µM (inactive)
101 | Cc1cccc(OCc2nnc(SCC(=O)O)n2-c2ccccc2)c1 | > 42 µM (inactive)
102 | COc1ccccc1N1CCN(C(=O)c2ccc(N3CCCCS3(=O)=O)cc2)CC1 | > 42 µM (inactive)
